# Laboratory results from patent US11446287B2, “Compounds and methods for EP300 or CBP modulation and indications therefor” (Opna Immuno-Oncology SA, priority 2019, dated 2022).
# Biological target: T1, Recombinant human BRD4 containing dual bromodomains (BRD4-BD12 (1-477)) (Homo sapiens, UniProt O60885)
# T1 construct: Recombinant human BRD4 containing dual bromodomains (BRD4-BD12 (1-477)); made in house; host or cells: E. coli BL21-CodonPlus (DE3), modified pET vector
# Assay: BRD4 Alphascreen binding assay
# Description: BRD4 Alphascreen Binding Assay
# Binding of compounds of Formula (I) with BRD4 was assessed using Alphascreen binding assay. The inhibition of the interaction between BRD4 and its acetylated target protein was measured quantitatively using recombinant BRD4 protein, an acetylated Histone 4 peptide, and AlphaScreen™ technology. In absence of inhibition of the BRD4 protein bound to AlphaScreen™ nickel chelate acceptor beads can interact with the acetylated Histone 4 peptide which was immobilized by the AlphaScreen™ Streptavidin coated beads. This interaction brings donor and acceptor beads in proximity. The close proximity allows the singlet oxygen produced by laser excitation of the donor beads to reach the acceptor beads and generate a luminescence signal. BRD4 inhibitors result in a decrease in the proximity signal through an inhibition of the BRD4—acetylated peptide interaction.
# Recombinant human BRD4 containing dual bromodomains (BRD4-BD12 (1-477)) was prepared and purified as described in protein expression and purification session. The peptide was human Histone H41-21K5AcK8AcK12AcK16Ac-Biotin (Anaspec CA, USA).
# Protocol for BRD4 assay: All components are prepared in buffer composed of 50 mM HEPES pH 7.5, 50 mM NaCl, 0.01% BSA, 0.01% Triton X-100, 2 mM DTT. Test compounds and DMSO vehicle are diluted 1:50 in buffer and a 4 μL volume was transferred to an Alphaplate. 5.5 μL of Bromodomain protein and 5.5 μL of peptide are added to wells containing 4 μL of various concentrations of test compounds of Formula (I) or DMSO vehicle in an Alphaplate (PerkinElmer GA, USA) and incubated for 1 hour at room temperature. 5 μL donor and acceptor bead mixture was then added with final concentrations of 7.5 μg/ml. 30 minutes after bead addition, Alpha signal was read on the Envision spectrometer (λEx 680 nm, λEm 520-620 nm). Final concentrations of bromodomain proteins and peptide are as shown below.
# All data were normalized to the mean of 16 high and 16 low control wells on each plate. A four parameter curve fit of the following formula was then applied: Y=A+((B−A)/(1+((C/x)^D))) Where ‘A’ is the minimum, ‘B’ is the maximum, ‘C’ is the IC50 and ‘D’ is the Hill slope. Protein Expression and Purification
# Recombinant human BRD4 containing dual bromodomains (BRD4-BD12 (1-477)) was expressed in E. coli cells (in a modified pET vector) with an N-terminal six-His tag and purified using a combination of both IMAC (Ni-affinity) and size exclusion chromatography steps.
# Recombinant BRD4 was expressed using the E. coli strain BL21-CodonPlus (DE3) (Agilent Technologies CA, USA). Cells were grown in Terrific Broth (TB) media to an OD600 of 2.0 at 37° C. at which temperature was reduced to 18° C., protein was induced with 0.1 mM isopropyl-β-D-thiogalactopyranoside (“IPTG”) for 12-18 hours and harvested by centrifugation at 8000×g for 20 minutes. Cells were re-suspended in 40 mM Tris-HCl pH 8.0, 0.5 M NaCl, 25 mM Imidazole, 5% glycerol, 1/200 vol. Protease Inhibitor Cocktail Set III (Calbiochem), 5 mM beta-mercaptoethanol (“BME”), 0.5 mg/mL Lysozyme, and 0.5 mg/mL DNaseI, incubated on ice for 30 minutes and lysed with a cell disruptor (MicroFluidics MA, USA). The lysate was clarified by centrifugation at 20,000×g for 2 hours. The protein was captured with Ni-NTA resin (Life Technologies, USA). Contaminating proteins were washed off with 40 mM Tris-HCl pH 8.0, 0.5 M NaCl, 25 mM Imidazole, 5% glycerol, and 5 mM BME. Following 3× wash steps, protein was eluted step wise into wash buffer containing 50, 100, 150, 500 mM Imidazole. The protein was further purified using Gel Filtration column 16/60 Superdex 200 (GE Biosciences NJ, USA) in 10 mM HEPES pH 8.0, 150 mM NaCl, and 5 mM DTT. Glycerol was added to a final concentration of 12% and the protein was aliquoted and flash-frozen in liquid Nitrogen.
row,Structure (SMILES),IC50
1,"Cc1ccc(S(=O)(=O)n2cc(-c3ccc(C(=O)O)cc3)c3cc(-c4c(C)noc4C)cnc32)cc1 [P-0006, 4-(5-(3,5-dimethylisoxazol-4-yl)-1-tosyl-1H-pyrrolo[2,3-b]pyridin-3-yl)benzoic acid]",8 to 1000 µM
2,"Cc1noc(C)c1-c1cnc2c(c1)c(-c1ccc(C(=O)O)cc1)cn2C(c1ccccn1)C1CC1 (stereo not shown) [P-0007, 4-(1-(cyclopropyl(pyridin-2-yl)methyl)-5-(3,5-dimethylisoxazol-4-yl)-1H-pyrrolo[2,3-b]pyridin-3-yl)benzoic acid]",8 to 1000 µM
3,"Cc1noc(C)c1-c1cnc2c(c1)c(-c1ccc(C(=O)O)cc1)cn2C(c1ccccn1)C1CCC1 (stereo not shown) [P-0008, 4-(1-(cyclobutyl(pyridin-2-yl)methyl)-5-(3,5-dimethylisoxazol-4-yl)-1H-pyrrolo[2,3-b]pyridin-3-yl)benzoic acid]",8 to 1000 µM
4,"Cc1noc(C)c1-c1cnc2c(CC3CCC3)cn(-c3ccc(C(=O)O)cn3)c2c1 [P-0009, 6-(3-(cyclobutylmethyl)-6-(3,5-dimethylisoxazol-4-yl)-1H-pyrrolo[3,2-b]pyridin-1-yl)nicotinic acid]",8 to 1000 µM
5,"Cc1noc(C)c1-c1cnc2c(CC3CC3)cn(-c3ccc(C(=O)O)cn3)c2c1 [P-0010, 6-(3-(cyclopropylmethyl)-6-(3,5-dimethylisoxazol-4-yl)-1H-pyrrolo[3,2-b]pyridin-1-yl)nicotinic acid]",8 to 1000 µM
6,"Cc1noc(C)c1-c1cnc2c(Cc3ccccn3)cn(-c3ccc(C(=O)O)cn3)c2c1 [P-0011, 6-(6-(3,5-dimethylisoxazol-4-yl)-3-(pyridin-2-ylmethyl)-1H-pyrrolo[3,2-b]pyridin-1-yl)nicotinic acid]",8 to 1000 µM
7,"Cc1noc(C)c1-c1cnc2c(c1)c(-c1ccc(C(=O)O)cc1)cn2C(c1ccccn1)c1ccccn1 [P-0012, 4-(1-(di(pyridin-2-yl)methyl)-5-(3,5-dimethylisoxazol-4-yl)-1H-pyrrolo[2,3-b]pyridin-3-yl)benzoic acid]",8 to 1000 µM
8,"Cc1noc(C)c1-c1cnc2c(c1)c(-c1ccc(C(=O)O)cc1F)cn2[C@@H](C)c1ccccn1 [P-0097, (S)-4-(5-(3,5-dimethylisoxazol-4-yl)-1-(1-(pyridin-2-yl)ethyl)-1H-pyrrolo[2,3-b]pyridin-3-yl)-3-fluorobenzoic acid]",8 to 1000 µM
9,"COc1ccc(C(=O)O)cc1-n1cc(CC2CCC2)c2ncc(-c3c(C)noc3C)cc21 [P-0098, 3-(3-(cyclobutylmethyl)-6-(3,5-dimethylisoxazol-4-yl)-1H-pyrrolo[3,2-b]pyridin-1-yl)-4-methoxybenzoic acid]",1 to 8 µM
10,"Cc1noc(C)c1-c1cnc2c(C(=O)c3cccc(OC(F)F)c3)cn(-c3ccnc(C(=O)O)c3)c2c1 [P-0099, 4-(3-(3-(difluoromethoxy)benzoyl)-6-(3,5-dimethylisoxazol-4-yl)-1H-pyrrolo[3,2-b]pyridin-1-yl)picolinic acid]",1 to 8 µM
11,"Cc1noc(C)c1-c1cnc2c(Cc3cccc(OC(F)F)c3)cn(-c3ccnc(C(=O)O)c3)c2c1 [P-0100, 4-(3-(3-(difluoromethoxy)benzyl)-6-(3,5-dimethylisoxazol-4-yl)-1H-pyrrolo[3,2-b]pyridin-1-yl)picolinic acid]",1 to 8 µM
12,"Cc1noc(C)c1-c1cnc2c(c1)c(-c1cccc(C(=O)O)c1)cn2CC1CC(F)(F)C1 [P-0101, 3-(1-((3,3-difluorocyclobutyl)methyl)-5-(3,5-dimethylisoxazol-4-yl)-1H-pyrrolo[2,3-b]pyridin-3-yl)benzoic acid]",8 to 1000 µM
13,"Cc1noc(C)c1-c1cnc2c(c1)c(-c1cccc(C(=O)O)c1)cn2CC1(C)COC1 [P-0102, 3-(5-(3,5-dimethylisoxazol-4-yl)-1-((3-methyloxetan-3-yl)methyl)-1H-pyrrolo[2,3-b]pyridin-3-yl)benzoic acid]",8 to 1000 µM
14,"COc1cc(C(=O)O)cc(OC)c1-c1cn([C@@H](C)c2ccccn2)c2ncc(-c3c(C)noc3C)cc12 [P-0103, (S)-4-(5-(3,5-dimethylisoxazol-4-yl)-1-(1-(pyridin-2-yl)ethyl)-1H-pyrrolo[2,3-b]pyridin-3-yl)-3,5-dimethoxybenzoic acid]",8 to 1000 µM
15,"Cc1noc(C)c1-c1cnc2c(CC3CCC3)cn(-c3ccc(C#N)c(C(=O)O)c3)c2c1 [P-0104, 2-cyano-5-(3-(cyclobutylmethyl)-6-(3,5-dimethylisoxazol-4-yl)-1H-pyrrolo[3,2-b]pyridin-1-yl)benzoic acid]",8 to 1000 µM
16,"Cc1noc(C)c1-c1cnc2c(CC3CCC3)cn(-c3ccc(C(=O)O)c(C#N)c3)c2c1 [P-0105, 2-cyano-4-(3-(cyclobutylmethyl)-6-(3,5-dimethylisoxazol-4-yl)-1H-pyrrolo[3,2-b]pyridin-1-yl)benzoic acid]",8 to 1000 µM
17,"Cc1noc(C)c1-c1cnc2c(c1)c(-c1cncc(C(=O)O)n1)cn2[C@@H](C)c1ccccn1 [P-0106, (S)-6-(5-(3,5-dimethylisoxazol-4-yl)-1-(1-(pyridin-2-yl)ethyl)-1H-pyrrolo[2,3-b]pyridin-3-yl)pyrazine-2-carboxylic acid]",8 to 1000 µM
18,"Cc1noc(C)c1-c1cnc2c(c1)c(-c1nccc(C(=O)O)n1)cn2[C@@H](C)c1ccccn1 [P-0107, (S)-2-(5-(3,5-dimethylisoxazol-4-yl)-1-(1-(pyridin-2-yl)ethyl)-1H-pyrrolo[2,3-b]pyridin-3-yl)pyrimidine-4-carboxylic acid]",8 to 1000 µM
19,"CCOc1cc(C(=O)O)cc(F)c1-n1cc(CC2CCC2)c2ncc(-c3c(C)noc3C)cc21 [P-0108, 4-(3-(cyclobutylmethyl)-6-(3,5-dimethylisoxazol-4-yl)-1H-pyrrolo[3,2-b]pyridin-1-yl)-3-ethoxy-5-fluorobenzoic acid]",1 to 8 µM
20,"CCOc1cc(C(=O)O)cc(OCC)c1-n1cc(CC2CCC2)c2ncc(-c3c(C)noc3C)cc21 [P-0109, 4-(3-(cyclobutylmethyl)-6-(3,5-dimethylisoxazol-4-yl)-1H-pyrrolo[3,2-b]pyridin-1-yl)-3,5-diethoxybenzoic acid]",1 to 8 µM
21,"Cc1noc(C)c1-c1cnc2c(CC3CCC3)cn(-c3ccc(C(=O)O)c4ccoc34)c2c1 [P-0110, 7-(3-(cyclobutylmethyl)-6-(3,5-dimethylisoxazol-4-yl)-1H-pyrrolo[3,2-b]pyridin-1-yl)benzofuran-4-carboxylic acid]",1 to 8 µM
22,"Cc1noc(C)c1-c1cnc2c(CC3CCC3)cn(-c3c(OC(C)C)cc(C(=O)O)cc3OC(C)C)c2c1 [P-0111, 4-(3-(cyclobutylmethyl)-6-(3,5-dimethylisoxazol-4-yl)-1H-pyrrolo[3,2-b]pyridin-1-yl)-3,5-diisopropoxybenzoic acid]",8 to 1000 µM
23,"Cc1noc(C)c1-c1cnc2c(c1)c(-c1ccc(C(=O)O)cc1OC(C)C)cn2[C@@H](C)c1ccccn1 [P-0112, (S)-4-(5-(3,5-dimethylisoxazol-4-yl)-1-(1-(pyridin-2-yl)ethyl)-1H-pyrrolo[2,3-b]pyridin-3-yl)-3-isopropoxybenzoic acid]",8 to 1000 µM
24,"CCCOc1cc(C(=O)O)ccc1-c1cn([C@@H](C)c2ccccn2)c2ncc(-c3c(C)noc3C)cc12 [P-0113, (S)-4-(5-(3,5-dimethylisoxazol-4-yl)-1-(1-(pyridin-2-yl)ethyl)-1H-pyrrolo[2,3-b]pyridin-3-yl)-3-propoxybenzoic acid]",8 to 1000 µM
25,"CCOc1cc(C(=O)O)ccc1-c1cn([C@@H](C)c2ccccn2)c2ncc(-c3c(C)noc3C)cc12 [P-0114, (S)-4-(5-(3,5-dimethylisoxazol-4-yl)-1-(1-(pyridin-2-yl)ethyl)-1H-pyrrolo[2,3-b]pyridin-3-yl)-3-ethoxybenzoic acid]",8 to 1000 µM
